# According to paper PMC3526597, “High-Glucose-Induced Endothelial Cell Injury Is Inhibited by a Peptide Derived from Human Apolipoprotein E” (PLoS ONE, 2012):
# Peptide text beside a SMILES is read from it.
# Test: Corneal penetration assay (aqueous humor level after eye drop)
# Type: in vivo, mouse
# Conditions: for Total / Measure concentration: mouse aqueous humor, UPLC-MS; for Measure concentration: sample mixed with 1 ml 0.1% formic acid
# Protocol: The apoEdp peptide (LRKLRKRLLLRKLRKRLL) is rich in cationic amino acids lysine and arginine. ApoEdp is more cationic than HIV-1 Tat cell penetrating peptide (Table 1). We hypothesized that apoEdp could act as a corneal penetrating peptide.
# Mouse eyes were treated with 1% apoEdp drops. At 0, 1, 2, 3, hours post-treatment, mice were sacrificed and eyes were enucleated. The globes were washed with sterile PBS three times and aqueous humor was aspirated using a 27-gauge needle and 1 mL syringe. The mouse aqueous humor samples were mixed with 1 ml of 0.1% formic acid solution and allowed to stand for 5 minutes. The samples were filtered with a 0.2-micron filter and analyzed using a Waters Acquity UPLC system (Milford, MA) with mass spectrophotometrical detection. […] These peaks included 483.9 m/z 604.4 m/z, and 805.6 m/z. We used the […] peak for the analysis because it was the strongest. For the UPLC analysis, we used a BEH300 C4 column 2.1 mm×100 mm×1.7 µm. A 2 component mobile phase was used with component 1:0.1% formic Acid, and Component 2: Acetonitrile with 0.1% formic acid. The flow rate was 0.2 ml/min and gradient elution was used with a linear gradient.
# [1] = 2 hours after 1% apoEdp eye drop, left eye
# [2] = 2 hours after 1% apoEdp eye drop, right eye
# [3] = 3 hours after 1% apoEdp eye drop, left eye
# [4] = 3 hours after 1% apoEdp eye drop, right eye
smiles,measurement,setting,value
CC(=O)N[C@@H](CC(C)C)C(=O)N[C@@H](CCCNC(=N)N)C(=O)N[C@@H](CCCCN)C(=O)N[C@@H](CC(C)C)C(=O)N[C@@H](CCCNC(=N)N)C(=O)N[C@@H](CCCCN)C(=O)N[C@@H](CCCNC(=N)N)C(=O)N[C@@H](CC(C)C)C(=O)N[C@@H](CC(C)C)C(=O)N[C@@H](CC(C)C)C(=O)N[C@@H](CCCNC(=N)N)C(=O)N[C@@H](CCCCN)C(=O)N[C@@H](CC(C)C)C(=O)N[C@@H](CCCNC(=N)N)C(=O)N[C@@H](CCCCN)C(=O)N[C@@H](CCCNC(=N)N)C(=O)N[C@@H](CC(C)C)C(=O)N[C@@H](CC(C)C)C(N)=O [apoEdp] (Ac-LRKLRKRLLLRKLRKRLL-NH2),time to reach the anterior chamber of the eye,"applied topically (1% eye drop), mouse eyes",≤ 3 h
same,Total,[1],3.89 ng
same,Measure concentration,[1],0.004 µg/mL
same,Total,[2],5.9 ng
same,Measure concentration,[2],0.006 µg/mL
same,Total,[3],58.08 ng
same,Measure concentration,[3],0.058 µg/mL
same,Total,[4],36.3 ng
same,Measure concentration,[4],0.036 µg/mL
